SMILES strings stand for the structures. ± gives the expanded uncertainty stated by the source.

The conditions of series [1]: Crystal; DTA.
Series [2] can be described thus: Molar enthalpy of transition or fusion. Conditions: Crystal; DSC.

For `C[N+](C)(C)CCOC(=O)CCC(=O)O.[Cl-]` [hydrogen choline chloride succinate], the Normal melting temperature in series [1] came to 147.40 ± 0.96 °C. In series [2], the “Molar enthalpy of transition or fusion” value was determined as 8.87 ± 0.502 kcal/mol.

Turning to `CC(=O)[O-].C[N+](C)(C)CCO` [choline acetate], the Normal melting temperature in series [1] was 67.60 ± 0.96 °C. Besides, the “Molar enthalpy of transition or fusion” value in series [2] is 3.94 ± 0.454 kcal/mol.

Values taken from the NIST ThermoML archive (doi:10.1016/j.jct.2013.07.025).
